Source: patent US9174980B2, “Heterocyclic compounds as inhibitors of leukotriene production” (Boehringer Ingelheim International GmbH, priority 2012, dated 2015)

Tests used:
[1] = biological target: T1, recombinant human FLAP protein (Homo sapiens, UniProt P20292); assay: FLAP binding assay (Scintillation Proximity Assay, displacement of [125I]L-691,831); settings: read-out: Human FLAP SPA Binding (IC50 nM)
T1 construct: made in house; host or cells: Sf9 insect cells (membrane fraction, 100,000 x g pellet)
T1 sequence (P20292 1-161): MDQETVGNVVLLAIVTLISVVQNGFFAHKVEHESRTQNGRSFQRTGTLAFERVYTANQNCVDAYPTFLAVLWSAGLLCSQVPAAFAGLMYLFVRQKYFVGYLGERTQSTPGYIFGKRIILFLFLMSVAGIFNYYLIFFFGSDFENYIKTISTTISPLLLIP
Procedure: Compounds are assessed for the ability to bind to FLAP in a binding assay that measures compound-specific displacement of an iodinated (^125I) FLAP inhibitor via a Scintillation Proximity Assay format (adapted from S. Charleson et al., Mol. Pharmacol., 1992, 41, 873-879).
Cell pellets produced from sf9 insect cells expressing recombinant human FLAP protein are resuspended in buffer A [15 mM Tris-HCl (pH 7.5), 2 mM MgCl2, 0.3 mM EDTA, 1 mM PMSF]. The cells are lysed with a Dounce homogenizer and the material is centrifuged at 10,000×g for 10 minutes. The supernatant is then collected and centrifuged at 100,000×g for 60 minutes. To prepare membrane protein for an assay, an aliquot of the 100,000×g pellet is resuspended in 1 ml of buffer A, Dounce homogenized, and finally subjected to polytron mixing (30 seconds). Membrane protein (25 μl, 5 μg) is mixed with WGA SPA beads (Amersham) and stirred for 1 h. To an assay plate (Perkin Elmer FlexiPlate) is added 25 μl of test compound prepared in Binding buffer [100 mM Tris (pH 7.5), 140 mM NaCl, 5% glycerol, 2 mM EDTA, 0.5 mM TCEP, 0.05% Tween 20], 25 μl of [^125I]L-691,831 (an iodinated analog of MK-591, Charleson et al. Mol. Pharmacol., 41, 873-879, 1992) and finally 50 μl of the bead/protein mixture. (final concentrations: beads, 200 μg/well; protein, 5 μg/well; [^125I] probe, 0.08 nM/well (17 nCi/well). The plates are shaken for 2 h before reading on a Microbeta plate reader. Non-specific binding is determined by the addition of 10 μM cold L-691,831 compound.

[2] = system: synthesis of LTB4 in human whole blood; assay: Human whole blood assay (calcimycin-stimulated LTB4 synthesis); type: cell-based; settings: Homo sapiens; read-out: Human Whole Blood LTB4 Assay for FLAP (IC50 nM)
Procedure: Compounds are additionally tested in a human whole blood assay to determine their ability to inhibit the synthesis of LTB4 in a cellular system. Compounds are combined with heparinized human whole blood and incubated for 15 minutes at 37° C. Calcimycin (20 μM final, prepared in phosphate-buffered saline, pH 7.4) is then added and the mixture is incubated for another 30 minutes at 37° C. The samples are centrifuged for 5 min at low speed (1500×g) and the plasma layer is removed. Plasma LTB4 concentrations are then measured using an antibody-based homogenous time-resolved fluorescence method (CisBio, Bedford, Mass.).

Compound	IC50 [1] [nM]	IC50 [2] [nM]
CC(C)C(C)(c1ccc(-c2cnc(N)nc2)cc1)c1cn(Cc2ccccn2)c2ccccc12 (centres unmarked) [Example 28, 5-(4-{3-methyl-2-[1-(pyridin-2-ylmethyl)-1H-indol-3-yl]butan-2-yl}phenyl)pyrimidin-2-amine]	3.3	610
CC(C)C(C)(c1ccc(-c2cnc(N)nc2)cc1)c1cn(Cc2ccc(Cl)cc2)c2ccccc12 (centres unmarked) [Example 29, 5-(4-{2-[1-(4-chlorobenzyl)-1H-indol-3-yl]-3-methylbutan-2-yl}phenyl)pyrimidin-2-amine]	5.1	2700
CN(C)CCn1cc(-c2cc([C@](C)(c3ccc(-c4cnc(N)nc4)cc3)C3CC3)no2)cn1 [Example 30, 5-{4-[(1S)-1-cyclopropyl-1-(5-{1-[2-(dimethylamino)ethyl]-1H-pyrazol-4-yl}-1,2-oxazol-3-yl)ethyl]phenyl}pyrimidin-2-amine]	330	1200
CC(C)C(C)(c1ccc(-c2cnc(N)nc2)cc1)c1cn(C)c2ccc(F)cc12 (centres unmarked) [Example 31, 5-{4-[2-(5-fluoro-1-methyl-1H-indol-3-yl)-3-methylbutan-2-yl]phenyl}pyrimidin-2-amine]	7.1	1200
CC(C)C(C)(c1ccc(-c2cnc(N)nc2)cc1)c1cn(C)c2ccccc12 (centres unmarked) [Example 32, 5-{4-[3-methyl-2-(1-methyl-1H-indol-3-yl)butan-2-yl]phenyl}pyrimidin-2-amine]	3.3	650
Nc1ncc(-c2ccc(C3(c4c[nH]c5ccccc45)CCOCC3)cc2)cn1 [Example 33, 5-{4-[4-(1H-indol-3-yl)tetrahydro-2H-pyran-4-yl]phenyl}pyrimidin-2-amine]	290	> 5000
CC(C)C(C)(c1ccc(-c2cnc(N)nc2)cc1)c1cn(Cc2ccc(Cl)cc2)c2ncccc12 (centres unmarked) [Example 34, 5-(4-{2-[1-(4-chlorobenzyl)-1H-pyrrolo[2,3-b]pyridin-3-yl]-3-methylbutan-2-yl}phenyl)pyrimidin-2-amine]	3.4	460
Nc1ncc(-c2ccc(C3(c4cn(Cc5ccccn5)c5ccccc45)CCOCC3)cc2)cn1 [Example 35, 5-(4-{4-[1-(pyridin-2-ylmethyl)-1H-indol-3-yl]tetrahydro-2H-pyran-4-yl}phenyl)pyrimidin-2-amine]	150	> 5000
CC(C)C(C)(c1ccc(OCc2ccccn2)cc1)c1cn(C)c2cc(C(=O)O)ccc12 (centres unmarked) [Example 36, 23-[1,2-dimethyl-1-[4-(2-pyridylmethoxy)phenyl]propyl]-1-methyl-indole-6-carboxylic acid]	1.8	1900
CC(C)C(C)(c1ccc(OCc2ccccn2)cc1)c1cn(C)c2cc(C(=O)Nc3cccnn3)ccc12 (centres unmarked) [Example 37, 3-[1,2-dimethyl-1-[4-(2-pyridylmethoxy)phenyl]propyl]-1-methyl-N-pyridazin-3-yl-indole-6-carboxamide]	1.4	150
CC(C)C(C)(c1ccc(OCc2ccccn2)cc1)c1cn(C)c2cc(C(N)=O)ccc12 (centres unmarked) [Example 38, 3-[1,2-dimethyl-1-[4-(2-pyridylmethoxy)phenyl]propyl]-1-methyl-indole-6-carboxamide]	1.4	240
CC(C)C(C)(c1ccc(-c2cnc(N)nc2)cc1)c1cn(C)c2ncccc12 (centres unmarked) [Example 39, 5-{4-[3-methyl-2-(1-methyl-1H-pyrrolo[2,3-b]pyridin-3-yl)butan-2-yl]phenyl}pyrimidin-2-amine]	3.3	290
CC(C)C(C)(c1ccc(-c2cnc(N)nc2)cc1)c1cn(Cc2ccccn2)c2cccc(F)c12 (centres unmarked) [Example 40, 5-(4-{2-[4-fluoro-1-(pyridin-2-ylmethyl)-1H-indol-3-yl]-3-methylbutan-2-yl}phenyl)pyrimidin-2-amine]	2.6	540
CC(C)C(C)(c1ccc(-c2cnc(N)nc2)cc1)c1cn(Cc2ccccn2)c2c(F)cccc12 (centres unmarked) [Example 41, 5-(4-{2-[7-fluoro-1-(pyridin-2-ylmethyl)-1H-indol-3-yl]-3-methylbutan-2-yl}phenyl)pyrimidin-2-amine]	3.4	1300
CC(C)C(C)(c1ccc(-c2cnc(N)nc2)cc1)c1c[nH]c2ccccc12 (centres unmarked) [Example 42, 5-{4-[2-(1H-indol-3-yl)-3-methylbutan-2-yl]phenyl}pyrimidin-2-amine]	2.5	170
Cc1cn(C(C)(c2ccc(-c3cnc(N)nc3)cc2)C(C)C)c2ccccc12 (centres unmarked) [Example 43, 5-{4-[3-methyl-2-(3-methyl-1H-indol-1-yl)butan-2-yl]phenyl}pyrimidin-2-amine]	30	1500
Cn1nc(C(c2ccc(-c3cnc(N)nc3)cc2)C(C)(C)C)c2ccccc21 (centres unmarked) [Example 44, 5-[4-[2,2-dimethyl-1-(1-methylindazol-3-yl)propyl]phenyl]pyrimidin-2-amine]	21	> 5000
COc1cccc2c(C(C)(c3ccc(-c4cnc(N)nc4)cc3)C(C)C)c[nH]c12 (centres unmarked) [Example 45, 5-{4-[2-(7-methoxy-1H-indol-3-yl)-3-methylbutan-2-yl]phenyl}pyrimidin-2-amine]	1.4	260
CC(C)C(C)(c1ccc(-c2cnc(N)nc2)cc1)c1cn(CC(=O)O)c2ncccc12 (centres unmarked) [Example 47, (3-{2-[4-(2-aminopyrimidin-5-yl)phenyl]-3-methylbutan-2-yl}-1H-pyrrolo[2,3-b]pyridin-1-yl)acetic acid]	4.6	> 5000
CC(C)C(C)(c1ccc(-c2cnc(N)nc2)cc1)c1cn(Cc2ccccn2)c2cc(F)ccc12 (centres unmarked) [Example 49, 5-(4-{2-[6-fluoro-1-(pyridin-2-ylmethyl)-1H-indol-3-yl]-3-methylbutan-2-yl}phenyl)pyrimidin-2-amine]	2	810
COc1cccc2c1c(C(C)(c1ccc(-c3cnc(N)nc3)cc1)C(C)C)cn2Cc1ccccn1 (centres unmarked) [Example 50, 5-(4-{2-[4-methoxy-1-(pyridin-2-ylmethyl)-1H-indol-3-yl]-3-methylbutan-2-yl}phenyl)pyrimidin-2-amine]	260	> 5000
COc1cccc2c(C(C)(c3ccc(-c4cnc(N)nc4)cc3)C(C)C)cn(Cc3ccccn3)c12 (centres unmarked) [Example 51, 5-(4-{2-[7-methoxy-1-(pyridin-2-ylmethyl)-1H-indol-3-yl]-3-methylbutan-2-yl}phenyl)pyrimidin-2-amine]	2.7	840
CC(C)C(C)(c1ccc(-c2cnc(N)nc2)cc1)c1cn(CCN2CCN(C)CC2)c2ccccc12 (centres unmarked) [Example 52, 5-[4-(3-methyl-2-{1-[2-(4-methylpiperazin-1-yl)ethyl]-1H-indol-3-yl}butan-2-yl)phenyl]pyrimidin-2-amine]	3.1	2200
COC(c1ccc(-c2cnc(N)nc2)cc1)(c1nn(C)c2ccccc12)C(C)(C)C (centres unmarked) [Example 53, 5-[4-[1-methoxy-2,2-dimethyl-1-(1-methylindazol-3-yl)propyl]phenyl]pyrimidin-2-amine]	400	> 5000
CC(C)C(C)(c1ccc(-c2cnc(N)nc2)cc1)c1c[nH]c2cc(OC3CCOC3)ccc12 (centres unmarked) [Example 54, 5-(4-{3-methyl-2-[6-(tetrahydrofuran-3-yloxy)-1H-indol-3-yl]butan-2-yl}phenyl)pyrimidin-2-amine]	8.3	840
